From BindingDB's records for doi:10.1002/cbic.200700524 (Universit&#224, 2008)

How the values were obtained:
Thymidylate synthase [1] = target: Thymidylate synthase (Escherichia coli (strain K12), UniProt P0A884); assay: Inhibition Assay
Description: (§1) All compounds were screened for inhibitory activity against Lactobacillus casei thymidylate synthase (LcTS) and Escherichia coli thymidylate synthase (EsTS). The inhibition experiments were conducted by measuring the effects of the inhibitor at different concentrations on the initial velocity of the enzyme in the presence of a limited amount of the folate substrate.

Thymidylate synthase [2] = target: T1, Thymidylate synthase (Lacticaseibacillus casei, UniProt P00469); assay: Inhibition Assay
T1 sequence (P00469 whole entry): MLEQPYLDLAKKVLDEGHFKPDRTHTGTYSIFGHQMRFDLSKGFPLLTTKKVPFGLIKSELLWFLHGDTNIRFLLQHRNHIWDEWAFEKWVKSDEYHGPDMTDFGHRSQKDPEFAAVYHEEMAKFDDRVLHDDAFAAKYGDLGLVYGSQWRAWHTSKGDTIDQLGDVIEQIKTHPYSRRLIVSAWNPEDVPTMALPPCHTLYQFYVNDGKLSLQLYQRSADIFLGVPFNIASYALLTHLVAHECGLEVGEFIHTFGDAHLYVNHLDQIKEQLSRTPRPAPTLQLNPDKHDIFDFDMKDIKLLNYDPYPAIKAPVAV
Description: as §1

Sequence of Thymidylate synthase (Escherichia coli (strain K12), UniProt P0A884) (P0A884 whole entry): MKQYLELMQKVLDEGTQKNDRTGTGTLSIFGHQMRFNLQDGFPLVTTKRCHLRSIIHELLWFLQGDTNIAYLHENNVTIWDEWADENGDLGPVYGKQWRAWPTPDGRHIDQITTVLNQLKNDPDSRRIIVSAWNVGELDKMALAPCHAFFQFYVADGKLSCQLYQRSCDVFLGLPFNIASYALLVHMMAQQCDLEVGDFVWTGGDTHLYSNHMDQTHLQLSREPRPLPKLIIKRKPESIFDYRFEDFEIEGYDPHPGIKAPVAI

Ki (Thymidylate synthase [1]) [µM] | Ki (Thymidylate synthase [2]) [µM] | Compound
8.2 | 4.4 | CN(C)c1cccc2c(S(=O)(=O)N[C@@H](Cc3cc(I)c(OS(=O)(=O)c4cccc5c(N(C)C)cccc45)c(I)c3)C(=O)O)cccc12 [Dansyl derivative, 2L]
7 | 3.6 | CN(C)c1cccc2c(S(=O)(=O)Oc3c(I)cc4c(c3I)CN(S(=O)(=O)c3cccc5c(N(C)C)cccc35)[C@H](C(=O)O)C4)cccc12 [Dansyl derivative, 2R]
> 1330 | 2.5 | CN(C)c1cccc2c(S(=O)(=O)Oc3ccc(C[C@H](NS(=O)(=O)c4ccc([N+](=O)[O-])cc4)C(=O)O)cc3)cccc12 [Dansyl derivative, 3L]
23 | 5.9 | CN(C)c1cccc2c(S(=O)(=O)Oc3ccc4c(c3)CN(S(=O)(=O)c3ccc([N+](=O)[O-])cc3)[C@H](C(=O)O)C4)cccc12 [Dansyl derivative, 3R]
> 1330 | 15 | CN(C)c1cccc2c(S(=O)(=O)Oc3ccc(C[C@H](NC(=O)c4ccc([N+](=O)[O-])cc4)C(=O)O)cc3)cccc12 [Dansyl derivative, 4L]
36 | 15 | CN(C)c1cccc2c(S(=O)(=O)Oc3ccc4c(c3)CN(C(=O)c3ccc([N+](=O)[O-])cc3)[C@H](C(=O)O)C4)cccc12 [Dansyl derivative, 4R]
> 636 | 6.7 | CN(C)c1cccc2c(S(=O)(=O)Oc3ccc(C[C@H](NS(=O)(=O)c4ccc(C(F)(F)F)cc4[N+](=O)[O-])C(=O)O)cc3)cccc12 [Dansyl derivative, 5L]
61 | 5.5 | CN(C)c1cccc2c(S(=O)(=O)Oc3ccc4c(c3)CN(S(=O)(=O)c3ccc(C(F)(F)F)cc3[N+](=O)[O-])[C@H](C(=O)O)C4)cccc12 [Dansyl derivative, 5R]
> 1340 | 5.8 | CN(C)c1cccc2c(S(=O)(=O)Oc3ccc(C[C@H](NS(=O)(=O)CC45CCC(C(=O)C4)C5(C)C)C(=O)O)cc3)cccc12 (stereo not given in full) [Dansyl derivative, 6L]
131 | 23 | CN(C)c1cccc2c(S(=O)(=O)Oc3ccc4c(c3)CN(S(=O)(=O)CC35CCC(C(=O)C3)C5(C)C)[C@H](C(=O)O)C4)cccc12 (stereo not given in full) [Dansyl derivative, 6R]
> 1470 | 17 | CN(C)c1cccc2c(S(=O)(=O)Oc3ccc(C[C@H](NC(=O)c4ccc5ccccc5c4)C(=O)O)cc3)cccc12 [Dansyl derivative, 7L]
1530 | 9.4 | CN(C)c1cccc2c(S(=O)(=O)Oc3ccc4c(c3)CN(C(=O)c3ccc5ccccc5c3)[C@H](C(=O)O)C4)cccc12 [Dansyl derivative, 7R]
> 1800 | 4.7 | CN(C)c1cccc2c(S(=O)(=O)Oc3ccc(C[C@H](NS(=O)(=O)Cc4ccccc4)C(=O)O)cc3)cccc12 [Dansyl derivative, 8L]
194 | 10 | CN(C)c1cccc2c(S(=O)(=O)Oc3ccc4c(c3)CN(S(=O)(=O)Cc3ccccc3)[C@H](C(=O)O)C4)cccc12 [Dansyl derivative, 8R]
> 1330 | 27 | CN(C)c1cccc2c(S(=O)(=O)Oc3ccc(C[C@H](NS(=O)(=O)c4cc(Br)c(Br)s4)C(=O)O)cc3)cccc12 [Dansyl derivative, 9L]
60 | 4 | CN(C)c1cccc2c(S(=O)(=O)Oc3ccc4c(c3)CN(S(=O)(=O)c3cc(Br)c(Br)s3)[C@H](C(=O)O)C4)cccc12 [Dansyl derivative, 9R]
1.8 |  | CN(C)c1cccc2c(S(=O)(=O)N[C@@H](Cc3ccc(OS(=O)(=O)c4cccc5c(N(C)C)cccc45)cc3)C(=O)O)cccc12 [Dansyl derivative, DDT, 1L]
13 | 0.8 | CN(C)c1cccc2c(S(=O)(=O)Oc3ccc4c(c3)CN(S(=O)(=O)c3cccc5c(N(C)C)cccc35)[C@H](C(=O)O)C4)cccc12 [Dansyl derivative, rigid DDT, 1R]
